Key:
Type in all cases: in vivo, human
[1] = Measurement of the magnification of sweetness intensity in aqueous solution (sensory evaluation against sucrose solutions); conditions: for Amount equivalent to PSE 10% / intensity of sweetness, times that of sucrose (magnification of sweetness intensity): aqueous solution; for intensity of sweetness, times that of sucrose (magnification of sweetness intensity): about PSE 10%
Procedure: (§1) An aqueous solution was prepared by diluting derivative 2 to be PSE 10% concentration (15.5 mg/1000 ml=10/6500 g/100 ml), assuming that the intensity of sweetness of derivative 2 was 6500 times that of sucrose. Separately, aqueous sucrose solutions having sucrose concentrations of (a)6.94%, (b)8.33%, (c)10%, (d)12%, and (e)14.4% were prepared. The sensory evaluation was performed by determining which sucrose solution was closest to the solution of derivative 2 in the sweetness intensity. The result of calculation of the average of points of 20 panelists was 2.25 point.
(§2) The intensity of sweetness of the solution of derivative 2 was 8.75% according to the following equation: (10.0−8.33)×0.25+8.33=8.75. Accordingly, the intense sweetness of derivative 2 was 5600 (=8.75/0.00155) times that of sucrose. According to the same experiment, the intensity of sweetness of derivative 1 was 22600 times that of sucrose. Furthermore, the magnification of sweetness intensity of other derivatives (3 to 9) can be determined by the same method.
as §2, with “intensity of” for “intense”
as §1, with “intense” for “intensity of”
The sweetness intensity of the solution of derivative 2 was 8.75% according to the following equation: (10.0−8.33)×0.25+8.33=8.75. Therefore, the magnification of sweetness intensity of derivative 2 was 5600 (=8.75/0.00155) times that of sucrose. When the same experiment was performed, the magnification of sweetness intensity of derivative 1 was 22600 times that of sucrose.

[2] = Equations for calculating sweetness intensity and values calculated from them; conditions: for concentration of the derivative of PSE 0.5%: from the cola drink equation of Example 17; for X when Y=6.3%: from the equation of the respective derivative
From the text: For example, when preparing a solution having a intensity of sweetness equivalent to that of 10% sucrose, wherein 80% of the 10% of intensity of sweetness is from the sweetener component A and the residual 20% is from the sweetener component B, the sweetness ratio is A:B=8:2. When the sweetening magnification relative to sucrose varies depending on the composition and the concentration of the sweetener component is varied even if it is a same sweetener component (in this case, an exponential curve can be prepared and used for calculation), the objective weight of the sweetener component can be calculated. For example, if the equation for converting sweetness intensity (the exponential curve) component A is Y=aX^b, and the equation for converting sweetness intensity (the exponential curve)of component B is Y=cX^d, the weight ratio of the components A and B in the ratio A:B=8:2, can be determined using the following calculation, where Y is a concentration equivalent to that of sucrose (PSE %), and X is the sweetener component concentration (g/100 ml):
(§3) Equations for calculating sweetness intensity in the cola drink (pH 2.8, 20° C.) are as follows, wherein Y denotes the concentration equivalent to that of sucrose (g/100 ml) and X denotes the concentration of the sweetener (g/100 ml), respectively.
With regard to Acesulfame K, the magnification of sweetness intensity was determined according to the following equation for calculating sweetness intensity.
[Y: concentration equivalent to that of sucrose (g/100ml); X: concentration of Acesulfame K (g/100 ml)]
By using the equation for calculating sweetness intensity in the cola drink (refer to Example 4) and the equation for calculating sweetness intensity of Aspartame (refer to the monthly Journal “Food Chemical” August, page 35, 1997), the necessary amounts of those were calculated. In case of Aspartame, the values at 20° C., pH2.8 were used.
The equation for calculating sweetness intensity of derivative 1 in the aqueous solution is as follows.
Where, the calculation of the sweetness was made by using the equation for calculating sweetness intensity of derivative 4 Y=58775X^1.04. When Y=6.3%, X=0.00015 g/100 ml, When Y=5.1%, X=0.00012 g/100 ml.
as §3, with “Examples for equations” for “Equations”, “(pH2.8,” for “(pH 2.8,”, “follows, and another equations can be prepared in the same manner,” for “follows,”

[3] = Taste characteristics in a cola drink (9 items, similarity index vs cola drink containing 10% sucrose); conditions: non-carbonated cola drink, PSE 10%, vs cola drink with 10% sucrose; smaller = closer to sucrose; 8 panelists
Procedure: The following experiments were performed in the same way as that of Example 2. Instead of aqueous solution, the cola drink of each of derivatives 1 to 9 having a sweetness level equivalent to that of PSE 10% was prepared, and compared with the cola drink containing 10% sucrose. The evaluation method and so on were same as that of Example 2.
When carbon dioxide is blown in the cola drink, the carbonated cola drink is prepared, however, the taste of the cola drink can be compared more easily in that without carbon dioxide. Thus the sensory evaluation of non-carbonated cola drink was performed.
The composition of the cola drink employed was same as that of Example 1.
(§4) The similarity indexes were calculated as those of aqueous solutions. The smaller the similarity index becomes, the better the taste balances, and the closer the taste is to the taste characteristics (quality) of sucrose. The total taste becomes preferable. The similarity indexes of each derivatives are shown as follows. […]
The following experiments were conducted in the same way as that of Example 15. Instead of aqueous solution, the cola drink of each of derivatives 1 to 9 having a sweetness level equivalent to that of PSE 10% was prepared, and compared with the cola drink containing 10% sucrose. All of the evaluation method and so on were same as those of Example 15.
When carbon dioxide is blown in the cola drink, the carbonated cola drink is prepared, however, the taste of the cola drink can be compared more easily in that without carbon dioxide. Thus the non-carbonated cola drink was organoleptically evaluated.
The composition of the cola drink employed was same as that of Example 14.
as §4, with “(quality)of” for “(quality) of”, “each of the” for “each”

| SMILES | Amount equivalent to PSE 10% [1] | intensity of sweetness, times that of sucrose (magnification of sweetness intensity) [1] | concentration of the derivative of PSE 0.5% [2] | Similarity index [3] | X when Y=6.3% [2] | other results |
| --- | --- | --- | --- | --- | --- | --- |
| COC(=O)[C@H](Cc1ccccc1)NC(=O)[C@H](CC(=O)O)NCCCc1ccc(OC)c(O)c1 [Derivative 1, N-[N-[3-(3-hydroxy-4-methoxyphenyl)propyl] -L-α-aspartyl]-L-phenylalanine 1-methyl ester] | 4.5 mg/1000 ml | 22600 times | 0.0000434 g/dL | 0.78 |  | magnification of the sweetness intensity at PSE 5% ([2]; calculated, block ice of Example 12): 25600 times; X, concentration of the sweetener when Y=1 ([2]; cola drink, pH 2.8, 20° C.): 0.000074 g/100 ml; X, concentration of the sweetener when Y=2 ([2]; cola drink, pH 2.8, 20° C.): 0.00013 g/100 ml; X, concentration of the sweetener when Y=5 ([2]; cola drink, pH 2.8, 20° C.): 0.00026 g/100 ml; X, concentration of the sweetener when Y=8 ([2]; cola drink, pH 2.8, 20° C.): 0.00037 g/100 ml; X, concentration of the sweetener when Y=9.5 ([2]; cola drink, pH 2.8, 20° C.): 0.000425 g/100 ml |
| COC(=O)[C@H](Cc1ccccc1)NC(=O)[C@H](CC(=O)O)NCCCc1ccc(OC)cc1 [Derivative 2, N-[N-[3-(4-methoxyphenyl)propyl]-L-α-aspartyl]-L-phenylalanine 1-methyl ester] | 17.9 mg/1000 ml | 5600 times | 0.0000597 g/dL | 0.80 |  | intensity of sweetness of the solution ([1]; aqueous solution 15.5 mg/1000 ml, sucrose-equivalent concentration): 8.75%; average of points of 20 panelists ([1]; derivative 2 aqueous solution 15.5 mg/1000 ml, closest of sucrose solutions (a)6.94% to (e)14.4%): 2.25 point; magnification of sweetness intensity at PSE 4% ([2]; calculated, sweetener for tabletop use): 6000 times |
| COC(=O)[C@H](Cc1ccccc1)NC(=O)[C@H](CC(=O)O)NCCC(C)(C)c1ccc(O)c(C)c1 [Derivative 4, N-[N-[3-(3-methyl-4-hydroxyphenyl)-3-methylbutyl]-L-α-aspartyl]-L-phenylalanine 1-methyl ester] | 2.3 mg/1000 ml |  |  | 1.04 | 0.00015 g/100 ml | X when Y=5.1% ([2]; from the equation of derivative 4): 0.00012 g/100 ml |
| COC(=O)[C@H](Cc1ccccc1)NC(=O)[C@H](CC(=O)O)NCCC(C)(C)c1ccc(O)cc1 [Derivative 6, N-[N-[3-(4-hydroxyphenyl)-3-methylbutyl]-L-α-aspartyl]-L-phenylalanine 1-methyl ester] | 6.7 mg/1000 ml |  |  | 0.81 |  | X when Y=9.6% ([2]; from the equation of derivative 6): 0.000685 g/100 ml |
| COC(=O)[C@H](Cc1ccccc1)NC(=O)[C@H](CC(=O)O)NCCCc1ccc(O)c(C)c1 [Derivative 8, N-[N-[3-(3-methyl-4-hydroxyphenyl)propyl]-L-α-aspartyl]-L-phenylalanine 1-methyl ester] | 5.5 mg/1000 ml |  |  | 1.00 | 0.00036 g/100 ml | X when Y=8.9% ([2]; from the equation of derivative 8): 0.00055 g/100 ml |
